Data from paper PMC11233931, “Remodeling tumor‐associated macrophage for anti‐cancer effects by rational design of irreversible inhibition of mitogen‐activated protein kinase‐activated protein kinase 2” (MedComm, 2024).

How the values were obtained:
Assay in all cases: Eurofins kinase selectivity profile against 380 other human recombinant kinases (Table S2)
Format in all cases: biochemical
[1] = biological target: T1, 380 human recombinant protein kinases (Homo sapiens, UniProt Q9UL54); conditions: TAO2(h), read-out: Inhibition rate (%)
T1 construct: purchased Eurofins (Celle Lévescault)
T1 sequence (Q9UL54 1-1235): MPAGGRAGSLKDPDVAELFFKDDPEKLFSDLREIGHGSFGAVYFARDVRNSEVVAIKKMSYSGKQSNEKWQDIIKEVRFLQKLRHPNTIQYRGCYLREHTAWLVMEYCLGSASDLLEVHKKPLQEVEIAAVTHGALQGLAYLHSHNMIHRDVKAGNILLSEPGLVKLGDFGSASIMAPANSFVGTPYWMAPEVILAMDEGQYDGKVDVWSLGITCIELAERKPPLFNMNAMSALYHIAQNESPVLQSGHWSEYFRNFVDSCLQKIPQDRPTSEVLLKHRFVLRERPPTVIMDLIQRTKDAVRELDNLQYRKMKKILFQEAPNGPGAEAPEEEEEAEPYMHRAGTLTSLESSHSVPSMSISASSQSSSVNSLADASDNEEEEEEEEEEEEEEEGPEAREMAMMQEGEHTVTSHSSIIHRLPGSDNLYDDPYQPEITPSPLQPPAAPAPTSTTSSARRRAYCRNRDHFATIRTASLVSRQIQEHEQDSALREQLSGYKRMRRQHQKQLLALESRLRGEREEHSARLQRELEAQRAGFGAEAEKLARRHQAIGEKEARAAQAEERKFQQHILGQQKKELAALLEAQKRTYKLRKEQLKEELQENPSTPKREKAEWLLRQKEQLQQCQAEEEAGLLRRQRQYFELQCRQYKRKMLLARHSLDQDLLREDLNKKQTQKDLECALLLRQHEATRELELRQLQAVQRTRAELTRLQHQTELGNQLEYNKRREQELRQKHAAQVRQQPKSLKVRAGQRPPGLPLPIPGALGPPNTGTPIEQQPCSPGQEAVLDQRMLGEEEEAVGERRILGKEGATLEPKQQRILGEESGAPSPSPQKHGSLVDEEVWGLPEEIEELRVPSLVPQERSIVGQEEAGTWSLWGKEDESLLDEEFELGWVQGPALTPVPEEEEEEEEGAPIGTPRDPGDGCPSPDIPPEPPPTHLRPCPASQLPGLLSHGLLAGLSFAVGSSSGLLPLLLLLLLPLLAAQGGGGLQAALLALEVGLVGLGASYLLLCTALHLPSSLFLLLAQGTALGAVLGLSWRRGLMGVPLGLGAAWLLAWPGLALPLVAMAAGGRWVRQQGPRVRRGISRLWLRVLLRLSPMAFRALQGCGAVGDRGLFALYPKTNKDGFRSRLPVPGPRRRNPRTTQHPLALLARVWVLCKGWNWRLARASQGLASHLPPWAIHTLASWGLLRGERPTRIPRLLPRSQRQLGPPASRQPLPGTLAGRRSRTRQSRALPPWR
Procedure, shortened: (§1)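 Commercial selectivity screen of the test compound against a panel of 380 human recombinant protein kinases, run by an outside contractor at several compound concentrations to check whether its potency was specific for MK2.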

[2] = biological target: T2, 380 human recombinant protein kinases (Homo sapiens, UniProt P49761); conditions: CLK3(h), read-out: Inhibition rate
T2 construct: purchased Eurofins (Celle Lévescault)
T2 sequence (P49761 whole entry): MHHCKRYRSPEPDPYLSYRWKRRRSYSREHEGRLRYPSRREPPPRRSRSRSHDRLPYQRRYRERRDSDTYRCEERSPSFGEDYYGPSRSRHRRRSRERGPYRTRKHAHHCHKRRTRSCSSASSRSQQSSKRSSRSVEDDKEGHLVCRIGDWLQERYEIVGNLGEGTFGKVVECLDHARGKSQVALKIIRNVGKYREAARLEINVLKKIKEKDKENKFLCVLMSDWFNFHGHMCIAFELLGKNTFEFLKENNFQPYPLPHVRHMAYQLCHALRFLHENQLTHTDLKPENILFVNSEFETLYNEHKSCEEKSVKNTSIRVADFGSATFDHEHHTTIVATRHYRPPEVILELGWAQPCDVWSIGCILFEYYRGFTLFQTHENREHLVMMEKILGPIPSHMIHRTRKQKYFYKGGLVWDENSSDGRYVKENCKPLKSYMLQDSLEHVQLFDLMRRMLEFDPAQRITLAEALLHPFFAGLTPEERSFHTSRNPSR
Procedure, shortened: as §1

[3] = biological target: T3, 380 human recombinant protein kinases (Homo sapiens, UniProt Q9BYP7); conditions: WNK3(h), read-out: Inhibition rate (%)
T3 construct: purchased Eurofins (Celle Lévescault)
T3 sequence (Q9BYP7 whole entry): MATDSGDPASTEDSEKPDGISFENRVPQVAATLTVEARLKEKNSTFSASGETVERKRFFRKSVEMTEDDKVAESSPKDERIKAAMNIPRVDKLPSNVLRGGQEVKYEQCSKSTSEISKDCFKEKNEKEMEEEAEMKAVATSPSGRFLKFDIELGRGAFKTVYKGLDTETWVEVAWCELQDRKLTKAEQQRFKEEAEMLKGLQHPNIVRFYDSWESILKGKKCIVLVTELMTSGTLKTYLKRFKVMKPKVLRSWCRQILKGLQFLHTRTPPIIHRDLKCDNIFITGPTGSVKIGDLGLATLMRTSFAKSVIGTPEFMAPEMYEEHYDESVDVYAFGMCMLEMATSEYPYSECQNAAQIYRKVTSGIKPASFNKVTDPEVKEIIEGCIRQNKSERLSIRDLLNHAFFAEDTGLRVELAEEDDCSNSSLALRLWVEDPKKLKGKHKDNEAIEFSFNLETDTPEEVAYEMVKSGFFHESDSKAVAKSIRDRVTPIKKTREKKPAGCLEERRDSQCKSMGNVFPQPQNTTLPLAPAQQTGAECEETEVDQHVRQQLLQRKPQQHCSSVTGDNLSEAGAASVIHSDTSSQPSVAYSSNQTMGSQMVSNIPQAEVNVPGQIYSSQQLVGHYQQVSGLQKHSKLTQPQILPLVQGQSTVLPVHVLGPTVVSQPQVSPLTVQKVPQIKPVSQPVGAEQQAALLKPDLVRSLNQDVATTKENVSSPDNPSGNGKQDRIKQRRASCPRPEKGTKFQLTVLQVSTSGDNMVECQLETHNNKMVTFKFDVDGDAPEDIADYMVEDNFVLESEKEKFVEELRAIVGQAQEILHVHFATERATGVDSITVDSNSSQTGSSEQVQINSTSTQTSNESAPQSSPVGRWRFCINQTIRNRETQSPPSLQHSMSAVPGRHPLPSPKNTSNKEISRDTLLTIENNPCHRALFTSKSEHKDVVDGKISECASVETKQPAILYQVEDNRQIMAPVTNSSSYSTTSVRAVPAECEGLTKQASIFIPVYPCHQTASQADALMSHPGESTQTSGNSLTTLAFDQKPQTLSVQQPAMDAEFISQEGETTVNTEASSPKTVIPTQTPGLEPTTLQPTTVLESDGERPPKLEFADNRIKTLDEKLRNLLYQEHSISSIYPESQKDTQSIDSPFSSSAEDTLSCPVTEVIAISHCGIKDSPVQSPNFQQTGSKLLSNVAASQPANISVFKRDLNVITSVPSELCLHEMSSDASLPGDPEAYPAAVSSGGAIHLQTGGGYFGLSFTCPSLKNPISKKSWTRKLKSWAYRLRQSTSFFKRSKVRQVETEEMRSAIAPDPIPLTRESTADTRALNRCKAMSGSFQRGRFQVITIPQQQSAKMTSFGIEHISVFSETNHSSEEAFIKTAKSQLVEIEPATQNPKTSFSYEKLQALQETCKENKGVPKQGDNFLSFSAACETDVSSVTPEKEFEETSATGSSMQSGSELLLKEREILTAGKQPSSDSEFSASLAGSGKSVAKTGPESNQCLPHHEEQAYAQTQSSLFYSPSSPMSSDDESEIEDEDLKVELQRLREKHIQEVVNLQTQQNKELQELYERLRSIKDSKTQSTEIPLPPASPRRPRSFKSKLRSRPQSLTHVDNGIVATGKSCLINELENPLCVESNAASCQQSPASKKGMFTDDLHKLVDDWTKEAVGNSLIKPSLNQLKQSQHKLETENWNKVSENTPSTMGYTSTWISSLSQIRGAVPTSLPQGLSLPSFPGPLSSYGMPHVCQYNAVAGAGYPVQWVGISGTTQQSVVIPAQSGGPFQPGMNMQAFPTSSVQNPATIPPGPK
Procedure, shortened: as §1

[4] = biological target: T4, 380 human recombinant protein kinases (Homo sapiens, UniProt Q92519); conditions: TRB2(h), read-out: Inhibition rate (%)
T4 construct: purchased Eurofins (Celle Lévescault)
T4 sequence (Q92519 1-343): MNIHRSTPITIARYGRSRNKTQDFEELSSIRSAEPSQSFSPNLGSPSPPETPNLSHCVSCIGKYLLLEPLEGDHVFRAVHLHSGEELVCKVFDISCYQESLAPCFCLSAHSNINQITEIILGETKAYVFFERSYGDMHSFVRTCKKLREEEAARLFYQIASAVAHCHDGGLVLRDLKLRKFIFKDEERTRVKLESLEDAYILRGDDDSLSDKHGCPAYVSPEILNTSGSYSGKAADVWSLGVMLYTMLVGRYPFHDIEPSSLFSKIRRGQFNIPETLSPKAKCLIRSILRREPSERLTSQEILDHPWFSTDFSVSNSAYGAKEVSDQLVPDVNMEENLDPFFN
Procedure, shortened: as §1

[5] = biological target: T5, 380 human recombinant protein kinases (Homo sapiens, UniProt Q14004); conditions: CDK13/cyclinK(h), read-out: Inhibition rate
T5 construct: purchased Eurofins (Celle Lévescault)
T5 sequence (Q14004 whole entry): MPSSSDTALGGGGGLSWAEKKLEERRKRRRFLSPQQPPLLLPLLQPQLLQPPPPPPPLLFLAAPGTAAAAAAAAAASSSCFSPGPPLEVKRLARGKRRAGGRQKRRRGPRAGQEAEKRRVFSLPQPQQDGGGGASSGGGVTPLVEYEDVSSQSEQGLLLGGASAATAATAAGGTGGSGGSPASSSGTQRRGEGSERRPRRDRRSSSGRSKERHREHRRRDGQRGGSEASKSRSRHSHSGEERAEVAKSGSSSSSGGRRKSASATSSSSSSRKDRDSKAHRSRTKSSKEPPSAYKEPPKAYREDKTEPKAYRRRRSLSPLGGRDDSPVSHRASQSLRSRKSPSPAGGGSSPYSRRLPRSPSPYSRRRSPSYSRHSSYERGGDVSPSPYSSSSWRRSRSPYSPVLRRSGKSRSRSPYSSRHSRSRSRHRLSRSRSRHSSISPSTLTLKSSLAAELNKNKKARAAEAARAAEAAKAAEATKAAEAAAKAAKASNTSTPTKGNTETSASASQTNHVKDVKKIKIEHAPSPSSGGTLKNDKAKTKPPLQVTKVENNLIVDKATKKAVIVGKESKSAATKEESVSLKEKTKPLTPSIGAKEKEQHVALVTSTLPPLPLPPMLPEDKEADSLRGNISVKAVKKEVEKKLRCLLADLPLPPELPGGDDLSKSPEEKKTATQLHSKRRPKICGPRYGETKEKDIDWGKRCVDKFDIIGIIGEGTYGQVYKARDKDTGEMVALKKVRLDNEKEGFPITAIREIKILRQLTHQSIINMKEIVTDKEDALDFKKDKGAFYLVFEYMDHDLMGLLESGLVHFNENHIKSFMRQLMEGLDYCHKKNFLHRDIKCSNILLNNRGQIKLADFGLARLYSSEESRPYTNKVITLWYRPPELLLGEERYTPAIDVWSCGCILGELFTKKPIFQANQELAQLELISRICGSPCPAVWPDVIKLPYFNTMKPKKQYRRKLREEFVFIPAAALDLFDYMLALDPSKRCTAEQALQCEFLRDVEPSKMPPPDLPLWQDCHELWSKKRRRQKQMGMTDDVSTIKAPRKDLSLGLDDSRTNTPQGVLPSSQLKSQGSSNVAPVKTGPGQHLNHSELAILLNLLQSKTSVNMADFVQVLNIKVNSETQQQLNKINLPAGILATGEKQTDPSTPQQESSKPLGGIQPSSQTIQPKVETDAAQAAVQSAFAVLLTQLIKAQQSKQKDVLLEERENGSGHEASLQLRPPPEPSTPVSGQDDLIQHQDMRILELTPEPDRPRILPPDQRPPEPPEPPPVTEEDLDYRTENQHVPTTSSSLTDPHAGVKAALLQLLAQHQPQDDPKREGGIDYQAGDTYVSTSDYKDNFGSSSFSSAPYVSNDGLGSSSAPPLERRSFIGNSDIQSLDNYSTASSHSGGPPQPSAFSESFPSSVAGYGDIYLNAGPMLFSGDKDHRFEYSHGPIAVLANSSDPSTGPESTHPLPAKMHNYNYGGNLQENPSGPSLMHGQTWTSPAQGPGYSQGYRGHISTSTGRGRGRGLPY
Procedure, shortened: as §1

[6] = biological target: T6, 380 human recombinant protein kinases (Homo sapiens, UniProt Q9NWZ3); conditions: IRAK4(h), read-out: Inhibition rate
T6 construct: purchased Eurofins (Celle Lévescault)
T6 sequence (Q9NWZ3 1-460): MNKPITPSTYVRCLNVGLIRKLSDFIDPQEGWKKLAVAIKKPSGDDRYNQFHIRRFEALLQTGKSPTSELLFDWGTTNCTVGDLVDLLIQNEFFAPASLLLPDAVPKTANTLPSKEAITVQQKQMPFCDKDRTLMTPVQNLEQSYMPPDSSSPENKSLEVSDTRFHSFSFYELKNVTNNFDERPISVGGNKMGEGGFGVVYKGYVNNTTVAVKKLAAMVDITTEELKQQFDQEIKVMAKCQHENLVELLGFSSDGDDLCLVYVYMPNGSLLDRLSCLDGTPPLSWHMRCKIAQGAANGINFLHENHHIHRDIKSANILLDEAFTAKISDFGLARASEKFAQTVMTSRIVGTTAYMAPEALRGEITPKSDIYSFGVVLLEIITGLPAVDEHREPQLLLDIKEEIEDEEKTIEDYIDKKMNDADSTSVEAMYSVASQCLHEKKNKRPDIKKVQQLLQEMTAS
Procedure, shortened: as §1

C=CC(=O)Nc1cc(-c2cc(-c3cc4c([nH]3)CCNC4=O)ccn2)ccc1OC(F)(F)F [compound 11]
inhibition at 0.01 µM ([1]; 10 nM): -7%
inhibition at 0.1 µM ([1]; 100 nM): 1%
inhibition at 1 µM ([1]; 1000 nM): 0%
inhibition at 0.01 µM ([2]; 10 nM): -3%
inhibition at 0.1 µM ([2]; 100 nM): 3%
inhibition at 1 µM ([2]; 1000 nM): 10%
inhibition at 0.01 µM ([3]; 10 nM): 0%
inhibition at 0.1 µM ([3]; 100 nM): 7%
inhibition at 1 µM ([3]; 1000 nM): 9%
inhibition at 0.01 µM ([4]; 10 nM): 29%
inhibition at 0.1 µM ([4]; 100 nM): 58%
inhibition at 1 µM ([4]; 1000 nM): 85%
inhibition at 0.01 µM ([5]; 10 nM): 1%
inhibition at 0.1 µM ([5]; 100 nM): 7%
inhibition at 1 µM ([5]; 1000 nM): 9%
inhibition at 0.01 µM ([6]; 10 nM): -4%
inhibition at 0.1 µM ([6]; 100 nM): -9%
inhibition at 1 µM ([6]; 1000 nM): -2%
